Reference: PubChem BioAssay AID248 (DTP/NCI, 2004)
“And” between values parts separate entries of the source, which are not always exact repeats. Equal values may be shown once. Toxic doses and inconclusive results are not listed. No stated cut-off is given here; in the data, active means T/C of 150% or more; inactive means T/C below 125%.

Test system: L1210 leukemia ip in BDF1 mice, survival T/C
Experiment: NCI In Vivo Anticancer Drug Screen. Data for tumor model L1210 Leukemia (intraperitoneal) in B6D2F1 (BDF1) mice
Settings: endpoint: mean survival time, higher = longer survival
Outline: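 Survival endpoint. Drug-treated group vs vehicle group, expressed as T divided by C. Tumor passaged by transplantation.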

[1] = dose: 100.0 mg/kg/injection, schedule: Q01DX009 (ip), vehicle: Klucel (hydroxypropylcellulose) (HPC)
[2] = dose: 200.0 mg/kg/injection, schedule: Q01DX009 (ip), vehicle: Klucel (hydroxypropylcellulose) (HPC)
[3] = dose: 400.0 mg/kg/injection, schedule: Q01DX009 (ip), vehicle: Klucel (hydroxypropylcellulose) (HPC)
[4] = dose: 100.0 mg/kg/injection, schedule: Q04DX002 (ip), vehicle: Klucel (hydroxypropylcellulose) (HPC)
[5] = dose: 200.0 mg/kg/injection, schedule: Q04DX002 (ip), vehicle: Klucel (hydroxypropylcellulose) (HPC)
[6] = dose: 100.0 mg/kg/injection, schedule: Q01DX001 (ip), vehicle: saline
[7] = dose: 100.0 mg/kg/injection, schedule: Q04DX003 (ip), vehicle: saline
[8] = dose: 200.0 mg/kg/injection, schedule: Q01DX001 (ip), vehicle: saline
[9] = dose: 200.0 mg/kg/injection, schedule: Q04DX003 (ip), vehicle: saline
[10] = dose: 400.0 mg/kg/injection, schedule: Q01DX001 (ip), vehicle: saline
[11] = dose: 400.0 mg/kg/injection, schedule: Q04DX003 (ip), vehicle: saline
[12] = dose: 50.0 mg/kg/injection, schedule: Q04DX002 (ip), vehicle: Klucel (hydroxypropylcellulose) (HPC)

Measured: T/C

c1ccc(N=Nc2ccc[nH]2)cc1
inactive: dose: 50.0 mg/kg/injection, schedule: Q01DX009 (ip), vehicle: acetone 98 % of control | dose: 100.0 mg/kg/injection, schedule: Q01DX009 (ip), vehicle: acetone 102 % of control

N#C/C(=C/c1cc(Cl)ccc1O)C(N)=O
inactive: [1] 102 % of control | [2] 95 % of control | [3] 100 % of control

O=C1C(N2CC2)=C(N2CC2)C(=O)C(N2CC2)=C1N1CC1
inactive: dose: 0.12 mg/kg/injection, schedule: Q01DX001 (ip), vehicle: saline 112 % of control

O=C(Oc1ccc(S(=O)(=O)F)cc1F)c1ccccc1Cl
inactive: [4] 95 % of control | [5] 89 % of control

CN1CN(c2ccccc2)C2(CCN(Cc3nc4ccc(Cl)cc4[nH]3)CC2)C1=O
inactive: dose: 100.0 mg/kg/injection, schedule: Q01DX001 (ip), vehicle: Klucel (hydroxypropylcellulose) (HPC) 101 % of control | dose: 200.0 mg/kg/injection, schedule: Q01DX001 (ip), vehicle: Klucel (hydroxypropylcellulose) (HPC) 93 % of control | dose: 400.0 mg/kg/injection, schedule: Q01DX001 (ip), vehicle: Klucel (hydroxypropylcellulose) (HPC) 91 % of control

Nc1ccc(C(=O)CC(=O)c2cccc([N+](=O)[O-])c2)cc1
inactive: dose: 100.0 mg/kg/injection, schedule: Q04DX003 (ip), vehicle: carboxymethylcellulose (CMC) 97 % of control | dose: 200.0 mg/kg/injection, schedule: Q04DX003 (ip), vehicle: carboxymethylcellulose (CMC) 93 % of control | dose: 400.0 mg/kg/injection, schedule: Q04DX003 (ip), vehicle: carboxymethylcellulose (CMC) 90 % of control

CCOC(=O)C(C#N)=C([SH2+])[SH2+].CCOC(=O)C(C#N)=C([SH2+])[SH2+].[Cu+2].c1ccc(C[P+](c2ccccc2)(c2ccccc2)c2ccccc2)cc1
inactive: [6] 92 % of control | [7] 102 % of control | [8] 87 % of control | [9] 97 % of control | [10] 89 % of control | [11] 91 % of control

NC(=O)c1cccc(Cl)n1
inactive: dose: 12.5 mg/kg/injection, schedule: Q04DX002 (ip), vehicle: Klucel (hydroxypropylcellulose) (HPC) 92 % of control | dose: 25.0 mg/kg/injection, schedule: Q04DX002 (ip), vehicle: Klucel (hydroxypropylcellulose) (HPC) 87 % of control | [12] 90 % of control

O=C(CCCN1CCN(c2ccccn2)CC1)c1ccc(F)cc1
inactive: dose: 12.5 mg/kg/injection, schedule: Q01DX009 (ip), vehicle: Klucel (hydroxypropylcellulose) (HPC) 96 % of control and 106 % of control | dose: 25.0 mg/kg/injection, schedule: Q01DX009 (ip), vehicle: Klucel (hydroxypropylcellulose) (HPC) 97 % of control and 101 % of control and 106 % of control | dose: 25.0 mg/kg/injection, schedule: Q04DX003 (ip), vehicle: Klucel (hydroxypropylcellulose) (HPC) 97 % of control | dose: 50.0 mg/kg/injection, schedule: Q01DX009 (ip), vehicle: Klucel (hydroxypropylcellulose) (HPC) 108 % of control and 109 % of control and 114 % of control | dose: 50.0 mg/kg/injection, schedule: Q04DX003 (ip), vehicle: Klucel (hydroxypropylcellulose) (HPC) 108 % of control | [1] 108 % of control and 110 % of control | dose: 100.0 mg/kg/injection, schedule: Q04DX003 (ip), vehicle: Klucel (hydroxypropylcellulose) (HPC) 103 % of control | [2] 105 % of control and 110 % of control | dose: 200.0 mg/kg/injection, schedule: Q04DX003 (ip), vehicle: Klucel (hydroxypropylcellulose) (HPC) 123 % of control

ClP1(N2CCCCC2)=NP(Cl)(N2CCCCC2)=NP(Cl)(N2CCCCC2)=NP(Cl)(N2CCCCC2)=N1 (stereo unspecified)
inactive: [7] 105 % of control | [9] 94 % of control | [11] 94 % of control

CCC1CCCC(C(=O)O)N1 (stereo unspecified)
inactive: dose: 100.0 mg/kg/injection, schedule: Q01DX009 (ip), vehicle: saline 101 % of control | [7] 95 % of control | dose: 200.0 mg/kg/injection, schedule: Q01DX009 (ip), vehicle: saline 95 % of control | [9] 95 % of control | dose: 400.0 mg/kg/injection, schedule: Q01DX009 (ip), vehicle: saline 100 % of control | [11] 105 % of control

Cc1ccccc1N1CCN(c2c3c(nc4ccccc24)CCCCC3)CC1
inactive: [6] 93 % of control | [10] 93 % of control

c1ccc(C2OC(c3ccccc3)C(c3ccccc3)OC2c2ccccc2)cc1 (stereo unspecified)
inactive: [1] 92 % of control | [2] 97 % of control | [3] 92 % of control

O=[N+]([O-])c1ccc(Nc2ccccc2)c([N+](=O)[O-])c1
inactive: [12] 103 % of control | [4] 92 % of control

Nc1ccn(C2OC(CO)C(OC3OC4COC(c5ccccc5)OC4C(O)C3O)C(O)C2O)c(=O)n1 (stereo unspecified)
inactive: dose: 22.5 mg/kg/injection, schedule: Q01DX001 (ip), vehicle: carboxymethylcellulose (CMC) 105 % of control | dose: 45.0 mg/kg/injection, schedule: Q01DX001 (ip), vehicle: carboxymethylcellulose (CMC) 100 % of control | dose: 90.0 mg/kg/injection, schedule: Q01DX001 (ip), vehicle: carboxymethylcellulose (CMC) 116 % of control | dose: 180.0 mg/kg/injection, schedule: Q01DX001 (ip), vehicle: carboxymethylcellulose (CMC) 97 % of control

CCCN1CC(Br)C(=O)NC1=O (stereo unspecified)
inactive: dose: 100.0 mg/kg/injection, schedule: Q01DX Z (ip), vehicle: methylcellulose (MC) 90 % of control

CNc1nc2c(=O)[nH]c(N)nc2n1C1OC(CO)C(O)C1O (stereo unspecified)
inactive: dose: 50.0 mg/kg/injection, schedule: Q01DX001 (ip), vehicle: carboxymethylcellulose (CMC) 101 % of control | dose: 100.0 mg/kg/injection, schedule: Q01DX001 (ip), vehicle: carboxymethylcellulose (CMC) 104 % of control | dose: 200.0 mg/kg/injection, schedule: Q01DX001 (ip), vehicle: carboxymethylcellulose (CMC) 95 % of control | dose: 400.0 mg/kg/injection, schedule: Q01DX001 (ip), vehicle: carboxymethylcellulose (CMC) 89 % of control

CCOC(=O)C(C)(C(=O)OCC)c1cccc2ccccc12
inactive: dose: 100.0 mg/kg/injection, schedule: Q01DX001 (ip), vehicle: other 98 % of control | dose: 100.0 mg/kg/injection, schedule: Q04DX003 (ip), vehicle: other 93 % of control | dose: 200.0 mg/kg/injection, schedule: Q01DX001 (ip), vehicle: other 102 % of control | dose: 200.0 mg/kg/injection, schedule: Q04DX003 (ip), vehicle: other 100 % of control | dose: 400.0 mg/kg/injection, schedule: Q01DX001 (ip), vehicle: other 96 % of control | dose: 400.0 mg/kg/injection, schedule: Q04DX003 (ip), vehicle: other 94 % of control

CCC(C)C(CCN1CCCCC1)(CNC(=O)CN(CC)CC)c1cccc2ccccc12 (stereo unspecified)
inactive: [7] 103 % of control | [9] 103 % of control

COP1(=O)OC(C)C(C)O1 (stereo unspecified)
inactive: [6] 98 % of control | [8] 102 % of control | [10] 93 % of control

Cc1ccc(CNC(=O)Nc2cccc(Cl)c2)cc1
inactive: [4] 115 % of control | [5] 102 % of control | dose: 400.0 mg/kg/injection, schedule: Q04DX002 (ip), vehicle: Klucel (hydroxypropylcellulose) (HPC) 108 % of control
